Source: patent US20100143886A1, “IN VIVO HCV RESISTANCE TO ANTI-VIRAL INHIBITORS” (priority 2007, published 2010)
Entries after “also recorded” stand apart in the source; their conditions may differ.

Experiments:
HCV genotype 3a = assay: Viral load by commercial RT-TaqMan assay, chimpanzee dosed with Compound A (Example 3); assay type: in vivo; details: 2 mg per kg IV for 7 days, level of quantitation 20 IU/ml
Method: A chimpanzee infected with a HCV genotype 3a from a human was dosed with Compound A (a N5B polymerase inhibitor) for 7 days at 2 mg per kg IV. Plasma samples were collected prior, during, and after the dosing regimen, with viral load determined by a commercial viral load assay (RT-TaqMan, level of quantitation 20 IU/ml, Cenetron Diagnostics, Austin, Tex. 78758).

HCV genotype 1a = assay: Viral load by commercial RT-TaqMan assay, chimpanzees dosed with Compound B (Example 1); assay type: in vivo, chimpanzee; details: two chimpanzees, oral 5 mg per kg b.i.d. for 7 days; level of quantitation 20 IU/ml
Method: Two chimpanzees chronically infected with HCV genotype 1a from a human were orally dosed with Compound B (a NS3 protease inhibitor) for 7 days at 5 mg per kg b.i.d. Plasma samples were collected prior, during, and after the dosing regimen, with viral load determined by a commercial viral load assay (RT-TaqMan, level of quantitation 20 IU/ml, Cenetron Diagnostics, Austin, Tex. 78758).

| SMILES | viral load suppression (HCV genotype 3a) | viral load suppression (HCV genotype 1a) |
| --- | --- | --- |
| C[C@@]1(O)[C@H](O)[C@@H](CO)O[C@H]1n1ccc2c(N)ncnc21 [Compound A] | below the limit of quantitation (BLQ); also recorded: below quantifiable levels | – |
| CC[C@@H]1C[C@]1(NC(=O)[C@@H]1C[C@@H]2CN1C(=O)[C@H](C(C)(C)C)NC(=O)OCC(C)(C)CCCCc1cccc3c1CN(C3)C(=O)O2)C(=O)NS(=O)(=O)C1CC1 [Compound B] | – | below quantifiable levels; also recorded: below the limit of quantitation (BLQ) |
